In patent US20250059139A1, “COMPOUNDS FOR TREATMENT OF CANCER” (THE JOHNS HOPKINS UNIVERSITY, priority 2021, published 2025):
Read-outs that look alike come from different tables or passages of the source.

Legend:
[1] = tested on: human umbilical vein endothelial cells (HUVECs); experiment: Three dimensional (3D) endothelial sprouting assay; type: cell-based; conditions: HUVEC, CM-supplemented 3D-fibrin cultures, read-out: IC90 for inhibiting endothelial cell sprouting
Method: Three Dimensional (3D) Endothelial Sprouting Assay. The assay was performed using a minimum of 3 replicate wells of a 48 well tissue culture plate per drug dose per experiment, repeated 3 independent times in which human umbilical vein endothelial cells (HUVECs) obtained from Lonza Walkersville Inc (Walkersville, MD) attached to gelatin-coated dextran microcarrier bead are embedded in a fibrin matrix as described previously (Brennen et al. Oncotarget 7, 71298-71308 (2016)).
Besides its therapeutic effects on cancer cells, TasQ's anti-cancer efficacy also involves its dose-dependent anti-angiogenic activity (see, e.g., Isaacs 2006, Olsson 2010, Dalrymple 2012), Isaacs 2013, Isaacs 2014, Brennen 2016). To clarify the MoA for this anti-angiogenic activity, a 3-dimensional (3D) endothelial cell sprouting assay was used. In this assay, human umbilical vein endothelial cells (HUVECs) in basal media supplemented with VEGF, EGF, FGF, IGF1 and 2% FBS in standard 2D cultures are attached to collagen-coated beads embedded in a 3D-fibrin gel in the same growth factor-supplemented media. […] This lack of sprouting is associated with an upregulation in Mef-2c mRNA (Table 2) and protein (FIG. 38), and its target genes (Table 2) like Alpha 2 Macroglobulin (A2M). […]

[2] = tested on: CWR22-RH human prostate cancer PDXs; experiment: In vivo growth of CWR22-RH xenografts in castrate NSG male mice; conditions: for CWR22-RH Tumor Growth (% inhibition +/− SD): castrate mice treated orally over a 3 week period, n = 5/group
Text: Prostate Cancer Models. The source, history, and characteristics of the human prostate cancer cell lines and PDXs used, as well as cell culture conditions for their in vitro maintenance and the in vivo protocol for xenograft growth in triple immune-deficient NSG (i.e. NOD.Cg-PrkdcScidIl2rgtmlWji/Szj), adult (>8 week old) male mice obtained from the Sidney Kimmel Comprehensive Cancer Center (SKCCC) Animal Core Facility are described previously (Isaacs 2013; Brennen et al. JCI Insight. 2021, 6(8):e146827; Zhu et al. Oncogene 2020, 39(45): 6935-6949). Similar information concerning the TRAMP-C2 and B6CaP mouse prostate cancers originating in a C57BL/6J male mice are described previously (Foster et al. Cancer Res. 1997, 57: 3325-3330; Simons et al. Oncotarget. 2019, 10(64):6845-6854). In vitro growth curves were determined as described (Isaacs 2013). In vivo growth response to oral daily TasQ (10 mg/kg/d) of TRAMP-C2 mouse prostate cancers was evaluated in C57BL/6J syngeneic wild type vs. NOX-2 vs. iNOS null male mice obtained from Jackson Laboratory (Bar Harbor, ME). Growth response to oral daily TasQ (10 mg/kg/d) of TRAMP-C2 and B6CaP mouse prostate cancers was also evaluated in S100A9 null C57BL′6J male mice obtained from Dmitry Gabrilovich (Wistar Institute). All lines were mycoplasma negative using the MycoSensor PCR Assay kit (Agilent Technologies) and genetically authenticated within the last 6 months using short tandem repeat profiling conducted by the Johns Hopkins Genetic Resource Core Facility. In vitro growth curves were determined as described (Isaacs 2013). Growth response to daily oral TasQ vs. ESATA-20 (both at 10 mg/kg/d) of Myc-CaP-CR mouse prostate cancer was evaluated in syngeneic FVB/NJ castrate male mice from Jackson Laboratory. Animal studies were conducted according to animal protocols approved by Johns Hopkins Animal Care and Use Committee. Tumor volume measurements were as described previously (id.). In vivo experiments were repeated multiple independent times for each model used with 3-5 mice per treatment grouping.
Oral Drug treatment. TasQ at the indicated dose was initially dissolved with equal molar 1 N sodium hydroxide. This solution was diluted with sterile water and the mixture stirred for 1 hr. The pH was then adjusted with 1 N HCl to 8.9 and 200 μL given daily via oral gavage.
Due to these combined effects, maximal growth inhibition of CWR22-RH, a castration-resistant prostate cancer patient-derived xenograft (PDX), is obtained as maintenance therapy with oral daily dosing of ≥5 mg/kg/d (FIG. 1). […] Previous studies documented that in vitro treatment of human prostate cancer cells (LNCaP) with 1-10 μM TasQ rapidly (i.e., ≤1 day) induces the transcription of a series of AHR target genes (e.g., Cyp1a1, Cyp1b1, AHRR, TPARP, GDF15) (Olsson 2010). […]

[3] = tested on: HIF-1α protein in LNCaP cells; experiment: Nuclear HIF-1α protein level in LNCaP cells (immunoblot); type: cell-based, human; conditions: LNCaP cells in vitro, read-out: IC50 for decreasing nuclear HIF-1α protein
Method: Western Blot Analysis. Analysis and quantification of protein expression via immunoblot was performed as previously described (Brennen 2021). All assays were performed with total cell lysates from an equal number (i.e., 100,000) of cells loaded per lane for accurate comparisons across cell lines and conditions.
[…] is an HDAC4 client (see, e.g., Isaacs 2013) binding between AA 603-788 in its inhibitory domain to HDAC4 (Seo et al. FEBS Lett 583, 55-604 (2009)). As a client, the HDAC4/NCoR1/HDAC3 complex deacetylates the N-terminal lysines, which stabilizes and thus activates HIF-1α as a transcription factor (see, e.g., Isaacs 2013). In LNCaP cells under normoxic conditions, HIF-1α protein is low, cytoplasmic, and mostly unphosphorylated; while under hypoxic conditions, it is increased, nuclear, and phosphorylated (i.e., slower migrating band on western blot) (see, e.g., Isaacs 2013) (FIG. 30). HDAC4 KD in LNCaP prostate cancer cells prevents deacetylation-dependent stabilization, resulting in a reduction of nuclear HIF-1α protein (FIG. 31). […] The causal importance of decreased HIF-1α protein for in vivo growth was evaluated by knocking down HIF-1α protein expression in LNCaP cells (FIG. 31), and assessing xenograft growth.

human AHR = biological target: T1, human AHR (Homo sapiens, UniProt P35869); experiment: Photo-affinity ligand (PAL) competitive binding to human AHR in liver cytosol of hAHR transgenic mice
T1 construct: from tissue; host or cells: liver cytosol of liver-specific hAHR transgenic mice
T1 sequence (P35869 11-848): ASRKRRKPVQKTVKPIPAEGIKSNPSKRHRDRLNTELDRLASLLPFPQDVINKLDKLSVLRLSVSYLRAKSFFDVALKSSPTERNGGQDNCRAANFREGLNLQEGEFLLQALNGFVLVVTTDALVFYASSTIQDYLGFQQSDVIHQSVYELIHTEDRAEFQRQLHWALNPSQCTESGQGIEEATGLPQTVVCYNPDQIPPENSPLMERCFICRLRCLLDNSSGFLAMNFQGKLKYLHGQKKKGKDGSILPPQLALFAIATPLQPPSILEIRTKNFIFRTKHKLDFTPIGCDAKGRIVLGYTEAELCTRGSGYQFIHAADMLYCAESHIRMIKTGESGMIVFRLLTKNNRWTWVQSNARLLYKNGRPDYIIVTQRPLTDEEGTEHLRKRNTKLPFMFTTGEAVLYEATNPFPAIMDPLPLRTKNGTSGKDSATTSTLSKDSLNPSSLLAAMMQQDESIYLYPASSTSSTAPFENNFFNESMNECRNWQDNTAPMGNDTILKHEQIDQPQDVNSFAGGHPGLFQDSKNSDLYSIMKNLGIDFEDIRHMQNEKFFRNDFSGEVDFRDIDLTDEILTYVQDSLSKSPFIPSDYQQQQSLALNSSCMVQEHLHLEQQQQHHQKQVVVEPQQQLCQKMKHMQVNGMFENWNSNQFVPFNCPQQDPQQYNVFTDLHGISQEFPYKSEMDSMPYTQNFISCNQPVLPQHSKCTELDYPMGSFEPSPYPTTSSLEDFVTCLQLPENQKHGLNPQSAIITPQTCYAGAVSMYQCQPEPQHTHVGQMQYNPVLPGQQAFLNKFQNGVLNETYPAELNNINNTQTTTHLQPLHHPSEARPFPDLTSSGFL
Method: AHR Binding Assay. Photo-affinity competitive ligand binding to the human AHR was performed as described previously (Brennen 2021).
This raises the issue of whether the induction of AHR target genes is a result of TasQ or one of its metabolites binds to AHR as a ligand. To test whether TasQ is an AHR ligand, liver cytosol lacking microsomal CYPs was isolated from liver-specific human AHR (hAHR)-expressing transgenic mice.

COc1cccc2c1c(O)c(C(=O)N(C)c1ccc(C(F)(F)F)cc1)c(=O)n2C [TasQ, Tasquinimod]
IC90 [1]: 10 µM
CWR22-RH Tumor Growth (% inhibition +/− SD) ([2]; 10 mg/kg/d): 87 +/− 11%
plasma concentration required to maximally inhibit in vivo prostate cancer xenograft growth ([2]; combined xenograft and PK results): > 2 µM
oral daily dose giving maximal growth inhibition ([2]; maintenance therapy, CWR22-RH PDX): ≥ 5 mg/kg/day
IC50 [3]: 2500 nM
EC50 (human AHR; 20 min competitive binding, liver cytosol of hAHR transgenic mice, read-out: EC50 as competitive ligand for human AHR (PAL assay)): 1000 nM

COc1cccc2c1c(O)c(C(=O)N(c1ccc(C(F)(F)F)cc1)C1CCCCC1)c(=O)n2C [ESATA-20]
IC90 [1]: 1 µM
anti-cancer efficacy compared with TasQ ([2]; 10 mg/kg/d): same maximal anti-cancer efficacy as TasQ
CWR22-RH Tumor Growth (% inhibition +/− SD) ([2]; 10 mg/kg/d): 80 +/− 15%
fold more potent than TasQ in inhibiting CWR22-RH xenograft growth ([2]; on a molar basis): at least 5 fold
IC50 ([3]; Homo sapiens): 1000 nM
fold lower binding affinity than TasQ (human AHR; competitive PAL AHR binding assay and cell-based AHR-promoter assay): 10 fold
